Target: T1, human glutathione reductase (hGR) (Homo sapiens, UniProt P00390)
T1 sequence (P00390 44-522): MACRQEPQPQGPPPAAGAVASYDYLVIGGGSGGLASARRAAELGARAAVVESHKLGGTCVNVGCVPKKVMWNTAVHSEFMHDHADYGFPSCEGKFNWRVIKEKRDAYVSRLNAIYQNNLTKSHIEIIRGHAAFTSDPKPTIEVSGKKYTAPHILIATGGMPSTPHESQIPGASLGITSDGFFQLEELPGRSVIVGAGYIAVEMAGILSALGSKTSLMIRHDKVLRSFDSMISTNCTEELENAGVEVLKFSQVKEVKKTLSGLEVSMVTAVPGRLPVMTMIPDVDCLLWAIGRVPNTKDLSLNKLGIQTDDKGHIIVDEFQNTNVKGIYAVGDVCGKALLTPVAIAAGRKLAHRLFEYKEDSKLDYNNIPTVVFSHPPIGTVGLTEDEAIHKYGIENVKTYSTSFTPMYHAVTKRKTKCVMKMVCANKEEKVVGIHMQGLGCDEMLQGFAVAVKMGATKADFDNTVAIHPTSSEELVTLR
Test: Human glutathione reductase inhibition
Type: biochemical
Conditions: GR IC50/TR IC50

## CC(C)(C)c1cc(CN2CCCCCC2)cc(C(C)(C)C)c1O [Compound 7c]
  Selectivity for TR: >4

From PMC3428910 (Bioorganic & medicinal chemistry letters, 2006)
